The numbers were not newly measured in patent US10286065B2 (priority 2014, dated 2019), which cites them from elsewhere.

For the compound `CCC(=O)O[C@]1(C(=O)SCF)[C@H](C)C[C@H]2[C@@H]3C[C@H](F)C4=CC(=O)C=C[C@]4(C)[C@@]3(F)[C@@H](O)C[C@@]21C` [Fluticasone propionate], the “solubility in dimethyl sulfoxide and dimethylformamide” value (dimethyl sulfoxide and dimethylformamide) is “freely soluble”. The “solubility in methanol and 95% ethanol” value (methanol and 95% ethanol) is recorded as “slightly soluble”. Moreover, the solubility in water result (water) is reported as “practically insoluble”.
